Data published in ChEMBL document CHEMBL3991601, “The target landscape of clinical kinase drugs” (Science, 2017).
The source made the active and inactive calls. For most assays here, no stated cut-off is given here; in the data, actives have a measured Kd and inactives only a lower limit.

Legend:
[1] = target: Serine/threonine-protein kinase 26 (Homo sapiens, UniProt Q9P289)
[2] = target: Tyrosine-protein kinase Fyn (Homo sapiens, UniProt P06241)
[3] = target: Tyrosine-protein kinase CSK (Homo sapiens, UniProt P41240)
Tyrosine-protein kinase CSK, sequence (P41240 whole entry): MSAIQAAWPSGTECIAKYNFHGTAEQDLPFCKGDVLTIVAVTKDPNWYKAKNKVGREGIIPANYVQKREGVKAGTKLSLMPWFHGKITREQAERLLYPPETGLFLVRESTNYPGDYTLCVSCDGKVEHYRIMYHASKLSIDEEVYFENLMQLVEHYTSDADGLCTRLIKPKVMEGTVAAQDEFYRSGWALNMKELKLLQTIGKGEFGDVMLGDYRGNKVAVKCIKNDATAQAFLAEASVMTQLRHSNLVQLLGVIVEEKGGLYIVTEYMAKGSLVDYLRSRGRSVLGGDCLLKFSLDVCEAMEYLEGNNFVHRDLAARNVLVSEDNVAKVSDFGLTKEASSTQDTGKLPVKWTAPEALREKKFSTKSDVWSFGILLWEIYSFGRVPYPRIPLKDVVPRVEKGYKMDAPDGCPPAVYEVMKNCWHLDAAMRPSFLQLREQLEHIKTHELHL

[4] = target: Cyclin-dependent kinase 6 (Homo sapiens, UniProt Q00534)
Cyclin-dependent kinase 6, sequence (Q00534 whole entry): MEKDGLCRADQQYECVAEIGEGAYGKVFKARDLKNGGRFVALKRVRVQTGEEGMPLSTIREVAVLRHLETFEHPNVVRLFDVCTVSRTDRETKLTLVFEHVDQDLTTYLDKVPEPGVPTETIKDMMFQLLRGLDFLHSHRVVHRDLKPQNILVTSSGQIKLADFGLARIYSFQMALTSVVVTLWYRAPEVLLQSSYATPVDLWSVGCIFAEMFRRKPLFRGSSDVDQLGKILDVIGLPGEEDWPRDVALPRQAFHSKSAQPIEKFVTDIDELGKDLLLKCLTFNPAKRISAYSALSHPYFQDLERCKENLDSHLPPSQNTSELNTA

[5] = target: T1, Serine/threonine-protein kinase Nek2 (Homo sapiens, UniProt P51955)
T1 sequence (P51955 whole entry): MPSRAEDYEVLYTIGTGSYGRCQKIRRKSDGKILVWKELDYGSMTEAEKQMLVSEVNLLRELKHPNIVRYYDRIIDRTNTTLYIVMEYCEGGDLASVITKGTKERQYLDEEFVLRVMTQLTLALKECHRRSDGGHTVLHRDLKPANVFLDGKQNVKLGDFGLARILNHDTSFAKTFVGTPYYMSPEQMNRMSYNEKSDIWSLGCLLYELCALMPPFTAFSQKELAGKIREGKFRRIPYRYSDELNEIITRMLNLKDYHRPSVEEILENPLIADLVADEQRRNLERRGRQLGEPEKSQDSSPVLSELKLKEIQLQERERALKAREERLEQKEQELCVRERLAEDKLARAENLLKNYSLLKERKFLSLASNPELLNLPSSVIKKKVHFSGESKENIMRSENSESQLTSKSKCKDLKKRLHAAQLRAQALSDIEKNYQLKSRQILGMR

ADP/ATP translocase 2 = target: T2, ADP/ATP translocase 2 (Homo sapiens, UniProt P05141)
T2 sequence (P05141 whole entry): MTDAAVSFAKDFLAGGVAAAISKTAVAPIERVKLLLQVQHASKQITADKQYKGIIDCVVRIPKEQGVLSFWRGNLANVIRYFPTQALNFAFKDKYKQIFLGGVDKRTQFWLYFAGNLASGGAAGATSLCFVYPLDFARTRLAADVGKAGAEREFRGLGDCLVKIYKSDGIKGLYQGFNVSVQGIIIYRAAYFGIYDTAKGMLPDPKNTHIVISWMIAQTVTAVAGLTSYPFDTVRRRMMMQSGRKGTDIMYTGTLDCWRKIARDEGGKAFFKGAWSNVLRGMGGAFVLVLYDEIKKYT

[6] = target: T3, MAP kinase-activated protein kinase 5 (Homo sapiens, UniProt Q8IW41)
T3 sequence (Q8IW41 whole entry): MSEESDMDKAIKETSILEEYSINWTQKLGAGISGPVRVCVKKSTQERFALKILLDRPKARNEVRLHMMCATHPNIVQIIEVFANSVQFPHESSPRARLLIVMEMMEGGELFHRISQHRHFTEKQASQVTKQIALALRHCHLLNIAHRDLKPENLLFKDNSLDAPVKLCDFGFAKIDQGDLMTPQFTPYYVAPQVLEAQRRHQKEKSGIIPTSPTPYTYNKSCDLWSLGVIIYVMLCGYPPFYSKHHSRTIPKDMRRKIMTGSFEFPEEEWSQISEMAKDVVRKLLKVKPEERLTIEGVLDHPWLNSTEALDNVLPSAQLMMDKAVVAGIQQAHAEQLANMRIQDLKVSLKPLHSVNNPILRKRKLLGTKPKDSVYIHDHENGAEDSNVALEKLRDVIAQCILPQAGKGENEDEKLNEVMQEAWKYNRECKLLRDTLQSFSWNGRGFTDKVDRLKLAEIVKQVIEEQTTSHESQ

[7] = target: T4, Phosphatidylinositol 5-phosphate 4-kinase type-2 gamma (Homo sapiens, UniProt Q8TBX8)
T4 sequence (Q8TBX8 whole entry): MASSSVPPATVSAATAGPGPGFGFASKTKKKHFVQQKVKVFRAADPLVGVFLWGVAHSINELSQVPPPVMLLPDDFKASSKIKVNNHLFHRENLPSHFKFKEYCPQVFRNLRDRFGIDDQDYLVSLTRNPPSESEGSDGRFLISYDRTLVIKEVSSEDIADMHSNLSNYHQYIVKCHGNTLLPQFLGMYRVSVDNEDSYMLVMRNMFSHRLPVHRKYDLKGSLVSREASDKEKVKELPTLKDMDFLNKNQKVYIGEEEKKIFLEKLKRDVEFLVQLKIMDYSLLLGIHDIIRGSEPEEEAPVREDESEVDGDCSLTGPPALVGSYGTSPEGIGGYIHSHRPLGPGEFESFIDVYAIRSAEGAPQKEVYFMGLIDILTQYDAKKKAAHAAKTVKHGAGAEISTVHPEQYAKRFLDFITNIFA

Aurora kinase B = Aurora kinase B (Homo sapiens, UniProt Q96GD4)
Aurora kinase B, sequence (Q96GD4 whole entry): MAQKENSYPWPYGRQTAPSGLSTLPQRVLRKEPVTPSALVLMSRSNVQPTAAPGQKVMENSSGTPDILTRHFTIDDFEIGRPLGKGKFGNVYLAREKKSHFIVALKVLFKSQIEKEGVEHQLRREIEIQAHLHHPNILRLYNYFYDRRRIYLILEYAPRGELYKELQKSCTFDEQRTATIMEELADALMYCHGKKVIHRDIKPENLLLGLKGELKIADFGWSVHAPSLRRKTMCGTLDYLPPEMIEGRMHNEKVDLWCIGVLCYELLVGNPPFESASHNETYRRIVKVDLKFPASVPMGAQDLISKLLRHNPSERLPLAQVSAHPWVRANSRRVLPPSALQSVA

[8] = target: Mitogen-activated protein kinase kinase kinase 20 (Homo sapiens, UniProt Q9NYL2)
Mitogen-activated protein kinase kinase kinase 20, sequence (Q9NYL2 whole entry): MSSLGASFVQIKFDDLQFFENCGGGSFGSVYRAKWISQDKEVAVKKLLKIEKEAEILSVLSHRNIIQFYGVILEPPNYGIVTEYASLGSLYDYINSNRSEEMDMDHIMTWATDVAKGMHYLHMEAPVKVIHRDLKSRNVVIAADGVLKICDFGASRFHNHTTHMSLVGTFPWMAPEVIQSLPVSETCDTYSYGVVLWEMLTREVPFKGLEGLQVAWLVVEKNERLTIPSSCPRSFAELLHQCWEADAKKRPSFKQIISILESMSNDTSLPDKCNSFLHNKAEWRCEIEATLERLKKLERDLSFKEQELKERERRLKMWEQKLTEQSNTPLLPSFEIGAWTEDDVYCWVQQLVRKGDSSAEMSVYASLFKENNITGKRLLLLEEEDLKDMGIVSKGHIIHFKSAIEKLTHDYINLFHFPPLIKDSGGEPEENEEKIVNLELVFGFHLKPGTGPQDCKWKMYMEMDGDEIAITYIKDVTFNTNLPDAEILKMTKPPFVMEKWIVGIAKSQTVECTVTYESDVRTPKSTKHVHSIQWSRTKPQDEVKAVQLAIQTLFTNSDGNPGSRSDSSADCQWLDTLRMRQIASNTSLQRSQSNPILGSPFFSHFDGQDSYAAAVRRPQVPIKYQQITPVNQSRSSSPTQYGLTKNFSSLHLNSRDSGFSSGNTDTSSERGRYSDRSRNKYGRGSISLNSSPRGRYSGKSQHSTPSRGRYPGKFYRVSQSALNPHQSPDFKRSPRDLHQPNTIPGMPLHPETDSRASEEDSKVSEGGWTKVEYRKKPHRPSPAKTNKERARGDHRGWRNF

[9] = target: Serine/threonine-protein kinase 16 (Homo sapiens, UniProt O75716)
Serine/threonine-protein kinase 16, sequence (O75716 whole entry): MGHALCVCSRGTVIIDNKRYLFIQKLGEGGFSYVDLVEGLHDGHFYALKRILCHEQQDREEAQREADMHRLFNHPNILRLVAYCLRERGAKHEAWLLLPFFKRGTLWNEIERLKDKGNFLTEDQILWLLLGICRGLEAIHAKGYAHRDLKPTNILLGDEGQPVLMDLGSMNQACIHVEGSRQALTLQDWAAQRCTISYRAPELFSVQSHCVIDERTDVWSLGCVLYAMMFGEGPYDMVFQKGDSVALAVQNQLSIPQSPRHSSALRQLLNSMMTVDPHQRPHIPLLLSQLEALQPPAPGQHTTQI

[10] = target: Maternal embryonic leucine zipper kinase (Homo sapiens, UniProt Q14680)
Maternal embryonic leucine zipper kinase, sequence (Q14680 whole entry): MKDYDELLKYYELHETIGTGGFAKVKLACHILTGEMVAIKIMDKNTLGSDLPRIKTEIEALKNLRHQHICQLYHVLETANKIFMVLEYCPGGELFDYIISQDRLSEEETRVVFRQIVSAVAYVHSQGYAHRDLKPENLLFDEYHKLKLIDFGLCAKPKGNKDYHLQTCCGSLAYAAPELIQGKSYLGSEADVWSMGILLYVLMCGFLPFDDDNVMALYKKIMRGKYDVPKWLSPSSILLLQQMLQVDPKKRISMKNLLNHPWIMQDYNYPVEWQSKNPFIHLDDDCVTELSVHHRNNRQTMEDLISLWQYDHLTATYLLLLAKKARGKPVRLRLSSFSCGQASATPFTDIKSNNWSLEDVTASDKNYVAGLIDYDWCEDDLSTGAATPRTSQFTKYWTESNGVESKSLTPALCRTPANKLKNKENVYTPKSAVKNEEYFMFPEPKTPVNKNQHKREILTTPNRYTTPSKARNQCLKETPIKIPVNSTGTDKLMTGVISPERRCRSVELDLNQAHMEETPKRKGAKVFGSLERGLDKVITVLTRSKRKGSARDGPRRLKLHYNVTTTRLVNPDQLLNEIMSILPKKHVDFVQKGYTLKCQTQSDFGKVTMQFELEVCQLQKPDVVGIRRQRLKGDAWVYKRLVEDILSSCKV

[11] = target: Tyrosine-protein kinase Fer (Homo sapiens, UniProt P16591)
Tyrosine-protein kinase Fer, sequence (P16591 whole entry): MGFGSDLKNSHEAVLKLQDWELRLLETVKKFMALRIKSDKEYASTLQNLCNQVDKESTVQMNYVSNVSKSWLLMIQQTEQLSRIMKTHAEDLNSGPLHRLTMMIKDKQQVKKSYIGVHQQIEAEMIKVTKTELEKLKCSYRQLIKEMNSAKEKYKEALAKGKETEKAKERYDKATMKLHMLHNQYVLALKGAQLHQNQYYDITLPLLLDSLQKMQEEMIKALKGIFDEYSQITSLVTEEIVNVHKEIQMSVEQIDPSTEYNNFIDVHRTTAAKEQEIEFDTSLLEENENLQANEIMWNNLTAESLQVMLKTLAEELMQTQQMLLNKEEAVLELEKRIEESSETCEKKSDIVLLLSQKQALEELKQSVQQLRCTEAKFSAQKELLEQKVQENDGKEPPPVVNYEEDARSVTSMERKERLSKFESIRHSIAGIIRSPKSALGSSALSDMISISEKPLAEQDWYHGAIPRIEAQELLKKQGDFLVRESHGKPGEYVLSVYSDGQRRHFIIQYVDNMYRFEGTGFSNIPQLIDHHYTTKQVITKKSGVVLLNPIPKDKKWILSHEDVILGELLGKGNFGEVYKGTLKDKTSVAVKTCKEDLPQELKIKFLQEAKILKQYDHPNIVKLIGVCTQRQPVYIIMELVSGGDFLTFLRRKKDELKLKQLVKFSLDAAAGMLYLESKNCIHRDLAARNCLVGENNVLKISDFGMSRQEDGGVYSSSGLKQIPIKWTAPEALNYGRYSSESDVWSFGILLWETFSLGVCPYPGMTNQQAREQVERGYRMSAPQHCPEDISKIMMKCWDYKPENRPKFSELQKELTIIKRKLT

Serine/threonine-protein kinase 26, sequence (Q9P289 whole entry): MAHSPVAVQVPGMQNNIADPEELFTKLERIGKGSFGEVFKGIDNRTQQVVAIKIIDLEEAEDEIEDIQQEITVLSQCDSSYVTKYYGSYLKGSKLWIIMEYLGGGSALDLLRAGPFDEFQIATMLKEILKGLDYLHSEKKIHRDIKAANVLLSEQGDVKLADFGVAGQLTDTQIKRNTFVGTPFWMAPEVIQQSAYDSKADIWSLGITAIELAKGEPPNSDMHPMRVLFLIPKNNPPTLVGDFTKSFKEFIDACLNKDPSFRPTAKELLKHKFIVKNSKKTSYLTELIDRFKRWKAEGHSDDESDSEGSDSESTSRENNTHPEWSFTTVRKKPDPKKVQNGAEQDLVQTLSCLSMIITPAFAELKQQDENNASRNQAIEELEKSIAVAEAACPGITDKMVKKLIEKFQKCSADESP
Tyrosine-protein kinase Fyn, sequence (P06241 whole entry): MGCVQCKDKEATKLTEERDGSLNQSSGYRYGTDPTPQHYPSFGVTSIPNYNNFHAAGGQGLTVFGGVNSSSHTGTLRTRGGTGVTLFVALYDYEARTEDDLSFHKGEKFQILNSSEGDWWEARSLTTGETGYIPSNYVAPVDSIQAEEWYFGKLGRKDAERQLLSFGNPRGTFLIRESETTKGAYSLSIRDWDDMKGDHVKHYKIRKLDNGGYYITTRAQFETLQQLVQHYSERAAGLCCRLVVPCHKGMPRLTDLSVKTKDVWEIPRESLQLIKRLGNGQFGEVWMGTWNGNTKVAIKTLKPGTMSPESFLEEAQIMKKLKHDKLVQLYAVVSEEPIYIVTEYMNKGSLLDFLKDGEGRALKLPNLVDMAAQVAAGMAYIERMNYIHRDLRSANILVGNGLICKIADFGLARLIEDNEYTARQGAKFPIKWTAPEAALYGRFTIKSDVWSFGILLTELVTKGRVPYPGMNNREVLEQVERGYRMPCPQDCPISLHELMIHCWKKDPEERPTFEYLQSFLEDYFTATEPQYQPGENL

Compound	Kd [1]	Kd [2]	Kd [3]	Kd [4]	Kd [5]	Kd (ADP/ATP translocase 2)	Kd [6]	Kd [7]	Kd (Aurora kinase B)	Kd [8]	Kd [9]	Kd [10]	Kd [11]
CC(=O)c1cnc2ccc(-c3cc(Cl)c(O)c(Cl)c3)nc2c1N[C@H]1CC[C@H](CN(C)C)CC1	> 30 µM (inactive)	0.125 µM (active)	> 30 µM (inactive)	> 30 µM (inactive)	> 30 µM (inactive)	> 30 µM (inactive)	0.272 µM (active)	0.003 µM	0.126 µM (active)	0.101 µM (active)	–	–	–
C=CC(=O)N1CCC[C@H](n2c(=O)n(-c3ccc(Oc4ccccc4)cc3)c3c(N)ncnc32)C1	> 30 µM (inactive)	0.005 µM	0.007 µM	> 30 µM (inactive)	> 30 µM (inactive)	> 30 µM (inactive)	> 30 µM (inactive)	> 30 µM (inactive)	> 30 µM (inactive)	> 30 µM (inactive)	> 30 µM (inactive)	> 30 µM (inactive)	> 30 µM (inactive)
COCc1c(-c2ccc(NC(=O)Nc3cc(C(F)(F)F)ccc3F)c(F)c2)c2c(N)ncnn2c1CN1CCOCC1	> 30 µM (inactive)	> 30 µM (inactive)	> 30 µM (inactive)	> 30 µM (inactive)	> 30 µM (inactive)	> 30 µM (inactive)	> 30 µM (inactive)	> 30 µM (inactive)	> 30 µM (inactive)	> 30 µM (inactive)	> 30 µM (inactive)	> 30 µM (inactive)	> 30 µM (inactive)
Cc1cc(C(=O)NOCCO)c(Nc2ccc(I)cc2F)n(C)c1=O [AZD-8330]	> 30 µM (inactive)	> 30 µM (inactive)	> 30 µM (inactive)	> 30 µM (inactive)	> 30 µM (inactive)	> 30 µM (inactive)	> 30 µM (inactive)	> 30 µM (inactive)	> 30 µM (inactive)	> 30 µM (inactive)	> 30 µM (inactive)	> 30 µM (inactive)	> 30 µM (inactive)
CCn1c(C(=O)N(C2CC2)C2CC2)cc2c3c(ncn3C)c(Nc3cc(C)n(C)n3)nc21 [BMS-911543]	> 30 µM (inactive)	> 30 µM (inactive)	> 30 µM (inactive)	> 30 µM (inactive)	> 30 µM (inactive)	> 30 µM (inactive)	–	> 30 µM (inactive)	> 30 µM (inactive)	> 30 µM (inactive)	> 30 µM (inactive)	> 30 µM (inactive)	> 30 µM (inactive)
Cn1cc(C2=C(c3cn(C4CCN(Cc5ccccn5)CC4)c4ccccc34)C(=O)NC2=O)c2ccccc21 [ENZASTAURIN]	–	–	–	> 30 µM (inactive)	–	> 30 µM (inactive)	–	–	–	–	–	–	–
Cc1nc2cc(-n3ncc(C(=O)c4cc5ccccc5[nH]4)c3N)ccc2[nH]1 [FGFR INHIBITOR DEBIO 1347]	> 30 µM (inactive)	> 30 µM (inactive)	> 30 µM (inactive)	> 30 µM (inactive)	> 30 µM (inactive)	> 30 µM (inactive)	> 30 µM (inactive)	> 30 µM (inactive)	> 30 µM (inactive)	> 30 µM (inactive)	> 30 µM (inactive)	> 30 µM (inactive)	> 30 µM (inactive)
O=C(Nc1nc2cccc(-c3ccc(CN4CCS(=O)(=O)CC4)cc3)n2n1)C1CC1 [FILGOTINIB]	> 30 µM (inactive)	> 30 µM (inactive)	> 30 µM (inactive)	> 30 µM (inactive)	> 30 µM (inactive)	> 30 µM (inactive)	> 30 µM (inactive)	> 30 µM (inactive)	> 30 µM (inactive)	> 30 µM (inactive)	> 30 µM (inactive)	> 30 µM (inactive)	> 30 µM (inactive)
CCn1cc(-c2ccnc3[nH]c(-c4cccc(CN(C)C)c4)cc23)c(-c2ccc(NC(=O)N(C)C)cc2)n1 [GSK-1070916]	> 30 µM (inactive)	> 30 µM (inactive)	> 30 µM (inactive)	> 30 µM (inactive)	> 30 µM (inactive)	> 30 µM (inactive)	> 30 µM (inactive)	–	0.371 µM (active)	> 30 µM (inactive)	> 30 µM (inactive)	> 30 µM (inactive)	> 30 µM (inactive)
NC1(c2ccc(-c3nc4ccn5c(=O)[nH]nc5c4cc3-c3ccccc3)cc2)CCC1 [MK-2206]	> 30 µM (inactive)	> 30 µM (inactive)	> 30 µM (inactive)	> 30 µM (inactive)	> 30 µM (inactive)	> 30 µM (inactive)	> 30 µM (inactive)	> 30 µM (inactive)	> 30 µM (inactive)	> 30 µM (inactive)	> 30 µM (inactive)	> 30 µM (inactive)	> 30 µM (inactive)
COc1ncc(-c2ccc3nccc(-c4ccnnc4)c3c2)cc1NS(=O)(=O)c1ccc(F)cc1F [OMIPALISIB]	> 30 µM (inactive)	> 30 µM (inactive)	> 30 µM (inactive)	> 30 µM (inactive)	> 30 µM (inactive)	> 30 µM (inactive)	> 30 µM (inactive)	1.37 µM (active)	> 30 µM (inactive)	> 30 µM (inactive)	> 30 µM (inactive)	> 30 µM (inactive)	> 30 µM (inactive)
CCCCCCCCCCCCCCCCCCOP(=O)([O-])OC1CC[N+](C)(C)CC1 [PERIFOSINE]	> 30 µM (inactive)	> 30 µM (inactive)	> 30 µM (inactive)	> 30 µM (inactive)	> 30 µM (inactive)	> 30 µM (inactive)	> 30 µM (inactive)	> 30 µM (inactive)	> 30 µM (inactive)	> 30 µM (inactive)	> 30 µM (inactive)	> 30 µM (inactive)	> 30 µM (inactive)
CC(=O)NCC(=O)N1[C@@H]2CC[C@H]1c1ccc(Nc3ncc(C(F)(F)F)c(NC4CCC4)n3)cc12 [PF-03814735]	> 30 µM (inactive)	–	> 30 µM (inactive)	2.08 µM (active)	–	> 30 µM (inactive)	–	> 30 µM (inactive)	0.02 µM (active)	–	–	–	–
CNC(=O)c1cc(Oc2ccc(NC(=O)Nc3cc(C(C)(C)C)nn3-c3ccc4ncccc4c3)c(F)c2)ccn1 [REBASTINIB]	> 30 µM (inactive)	–	0.41 µM (active)	> 30 µM (inactive)	> 30 µM (inactive)	> 30 µM (inactive)	> 30 µM (inactive)	> 30 µM (inactive)	> 30 µM (inactive)	0.388 µM (active)	–	> 30 µM (inactive)	–
N#CC1(c2ccc(NC(=O)c3cccnc3NCc3ccncc3)cc2)CCCC1 [RIVOCERANIB]	> 30 µM (inactive)	> 30 µM (inactive)	> 30 µM (inactive)	> 30 µM (inactive)	> 30 µM (inactive)	> 30 µM (inactive)	> 30 µM (inactive)	> 30 µM (inactive)	> 30 µM (inactive)	4.76 µM (active)	> 30 µM (inactive)	> 30 µM (inactive)	> 30 µM (inactive)
